Like-named read-outs stand apart in the source and are kept apart here. *1 amine or outer side, *2 acyl side, *3 side chain or, on linkers, in order; H or OH if unused. Where a SMILES comes first, the peptide text is derived from it. Bridges are numbered along the chain shown (N, C = ends). [ ]: non-standard residue; d: D form. The star is where a group is joined. X1 = CC[C@H](C)[C@@H](N[*:1])[C@@H](O)CC(=O)O[C@H](C(=O)[C@H](C)C(=O)[*:2])C(C)C; X2 = CC[C@H](C)[C@@H](N[*:1])[C@@H](O)CC(=O)[*:2]; NMeY = CN[C@@H](Cc1ccc(O)cc1)C(=O)O; dNMeL = CN[C@H](CC(C)C)C(=O)O; Hiv = CC(C)[C@H](O)C(=O)O; Pyruvoyl = CC(=O)C(=O)*
Tests used:
A549 (NSCL) = test: IC50 Aplidine Family panel (MTT/MTS); assay type: cell-based, human; conditions: MTT, read-out: IC50 (Molar) NSCL A549
MX-1 (Breast) = test: IC50 Aplidine Family panel (MTT/MTS); assay type: cell-based; conditions: MTT; read-out: IC50 (Molar) Breast MX-1
[1] = tested on: Molt 3 (ALL, Acute lymphobalstic); test: IC50 Aplidine Family panel (MTT/MTS); assay type: cell-based; conditions: read-out: IC50 (Molar) ALL (Acute lymphobalstic) Molt 3
CCRF-SB (ALL, B-cell) = test: IC50 Aplidine Family panel (MTT); assay type: cell-based; conditions: read-out: IC50 (Molar) ALL (B-cell) CCRF-SB
[2] = tested on: Hut 78 (Lymphoma, Cutaneous T cell); test: IC50 Aplidine Family panel (MTT); assay type: cell-based
786-O (Renal) = test: IC50 Aplidine Family panel (MTT); assay type: cell-based
[3] = tested on: P3HR1 (Lymphoma, Burkitts ascites); test: IC50 Aplidine Family panel (MTT); assay type: cell-based
PC-3 (Prostate) = test: IC50 Aplidine Family panel (MTT); assay type: cell-based; conditions: read-out: IC50 (Molar) Prostate PC-3
PANC-1 (Pancreas) = test: IC50 Aplidine Family panel (MTT); assay type: cell-based
Hs746t (Gastric) = test: IC50 Aplidine Family panel (MTT/MTS); assay type: cell-based; conditions: read-out: IC50 (Molar) Gastric Hs746t
SK-HEP-1 (Liver) = test: IC50 Aplidine Family panel (MTT/MTS); assay type: cell-based; conditions: read-out: IC50 (Molar) Liver SK-HEP-1
[4] = tested on: HL-60 (ALL, Promyelocytic leukemia); test: IC50 Aplidine Family panel (MTT/MTS); assay type: cell-based; conditions: MTT, read-out: IC50 (Molar) ALL (Promyelocytic leukemia) HL-60
[5] = tested on: U-937 (Lymphoma, Histiocytic); test: IC50 Aplidine Family panel (MTT); assay type: cell-based
SK-OV-3 (Ovary) = test: IC50 Aplidine Family panel (MTT); assay type: cell-based
5637 (Bladder) = test: IC50 Aplidine Family panel (MTT/MTS); assay type: cell-based; conditions: read-out: IC50 (Molar) Bladder 5637
[6] = tested on: K562 (CML, Chronic myelogenous); test: IC50 Aplidine Family panel (MTT/MTS); assay type: cell-based; conditions: read-out: IC50 (Molar) CML (Chronic myelogenous) K562
[7] = tested on: MC116 (Lymphoma, undifferentiated); test: IC50 Aplidine Family panel (MTT/MTS); assay type: cell-based; conditions: read-out: IC50 (Molar) Lymphoma (undifferentiated) MC116
SW 694 (Fibrosarcoma) = test: IC50 Aplidine Family panel (MTT/MTS); assay type: cell-based; conditions: MTT; read-out: IC50 (Molar) Fibrosarcoma SW 694
[8] = doses near those required for therapeutic applications; cited from earlier work
FADU (Pharynx) = test: IC50 Aplidine Family panel (MTT/MTS); assay type: cell-based; conditions: read-out: IC50 (Molar) Pharynx FADU
HT-29 (Colon) = test: IC50 Aplidine Family panel (MTT/MTS); assay type: cell-based, human; conditions: read-out: IC50 (Molar) Colon HT-29
H9 (Lymphoma, T cell) = test: IC50 Aplidine Family panel (MTT/MTS); assay type: cell-based; conditions: MTT, read-out: IC50 (Molar) Lymphoma (T cell) H9
[9] = tested on: ARH-77 (Leukemia, Plasma cell); test: IC50 Aplidine Family panel (MTT); assay type: cell-based; conditions: Homo sapiens, read-out: IC50 (Molar) Leukemia (Plasma cell) ARH-77
P388 Murine lymphoma = test: Cytotoxicity IC50 (after Berjeron et al); conditions: Mus musculus, P388, read-out: Cytotoxicity of [aa3]-aplidine Congeners IC50 (Molar) P388
Text: (§1) Methodology: after Berjeron et al, Biochem and Bioph Res. Comm., 1984, 121, 3, 848-854.
(§2) P388=Murine lymphoma. A549=human lung carcinoma. HT-29=human colon carcinoma. MEL-28=human melanoma.
(§3) A549=human lung carcinoma. HT-29=human colon carcinoma. MEL-28=human melanoma.

[10] = tested on: HT-29 human colon carcinoma; test: Cytotoxicity IC50 (after Berjeron et al); conditions: Homo sapiens, HT-29, read-out: Cytotoxicity of [aa3]-aplidine Congeners IC50 (Molar) HT29
Text: as §1, §2, §3

[11] = tested on: A549 human lung carcinoma; test: Cytotoxicity IC50 (after Berjeron et al); conditions: Homo sapiens, A549, read-out: Cytotoxicity of [aa3]-aplidine Congeners IC50 (Molar) A549
Text: as §1, §2, §3

MEL-28 human melanoma = test: Cytotoxicity IC50 (after Berjeron et al); conditions: Homo sapiens, SK-MEL-28, read-out: Cytotoxicity of [aa3]-aplidine Congeners IC50 (Molar) MEL28
Text: as §1, §2, §3

Mel-28 (Melanoma) = test: IC50 Aplidine Family panel (MTS); assay type: cell-based; conditions: Homo sapiens, SK-MEL-28; MTS (new); read-out: IC50 (Molar) Melanoma Mel-28
[12] = tested on: solid tumors like colon, chondrosarcoma and osteosarcoma; test: MTS assay, specificity against solid tumors; assay type: cell-based; conditions: with respect to didemnin B (III)
LNCAP (Prostate) = test: IC50 Aplidine Family panel (MTS); assay type: cell-based; conditions: Homo sapiens, MTS (new), read-out: IC50 (Molar) Prostate LNCAP
OSA-FH (Osteosarcoma) = test: IC50 Aplidine Family panel (MTS); assay type: cell-based; conditions: MTS (new); read-out: IC50 (Molar) Osteosarcoma OSA-FH
CHSA (Chondrosarcoma) = test: IC50 Aplidine Family panel (MTS); assay type: cell-based; conditions: MTS (new); read-out: IC50 (Molar) Chondrosarcoma CHSA
tumor cells = test: In vitro antitumor activity; assay type: cell-based
pancreatic carcinoma = conditions: compared with III (didemnin B); cited from earlier work
[13] = tested on: tumor cells (clonogenic assays); conditions: compared with III (didemnin B); cited from earlier work
NCI 60 cell panel = conditions: cited from earlier work
protein biosynthesis = conditions: compared with III (didemnin B); cited from earlier work

CC[C@H](C)[C@H]1NC(=O)[C@@H](NC(=O)[C@@H](CC(C)C)N(C)C(=O)[C@@H]2CCCN2C(=O)C(C)O)[C@@H](C)OC(=O)[C@H](Cc2ccc(OC)cc2)N(C)C(=O)[C@@H]2CCCN2C(=O)[C@H](CC(C)C)NC(=O)[C@@H](C)C(=O)[C@H](C(C)C)OC(=O)C[C@@H]1O (stereo partly shown) [Didemnin B]
IC50 (A549 (NSCL)): 121000 nM
IC50 (MX-1 (Breast)): 1540 nM
IC50 ([1]; MTT): 545 nM
IC50 (CCRF-SB (ALL, B-cell)): 655 nM
IC50 ([2]; read-out: IC50 (Molar) Lymphoma (Cutaneous T cell) Hut 78): 35.6 nM
IC50 (786-O (Renal); read-out: IC50 (Molar) Renal 786-O): 290 nM
IC50 ([3]; read-out: IC50 (Molar) Lymphoma (Burkitts ascites) P3HR1): 55.8 nM
IC50 (PC-3 (Prostate)): 90 nM
IC50 (PANC-1 (Pancreas); read-out: IC50 (Molar) Pancreas PANC-1): 0.152 nM
IC50 (Hs746t (Gastric); MTT): 6.6 nM
IC50 (SK-HEP-1 (Liver); MTT): 92.1 nM
IC50 [4]: 144 nM
IC50 ([5]; read-out: IC50 (Molar) Lymphoma (Histiocytic) U-937): 187 nM
IC50 (SK-OV-3 (Ovary); read-out: IC50 (Molar) Ovary SK-OV-3): 163 nM
IC50 (5637 (Bladder); MTT): 25 nM
IC50 ([6]; MTT): 3310 nM
IC50 ([7]; MTT): 8.84 nM
IC50 (SW 694 (Fibrosarcoma)): 3280 nM
toxicity [8]: toxic at doses near those required for therapeutic applications
IC50 (FADU (Pharynx); MTT): 97.9 nM
IC50 (HT-29 (Colon); MTT): 80.7 nM
IC50 (H9 (Lymphoma, T cell)): 213 nM

CC[C@H](C)[C@H]1NC(=O)[C@@H](NC(=O)[C@@H](CC(C)C)N(C)C(=O)[C@@H]2CCCN2C(=O)C(C)=O)[C@@H](C)OC(=O)[C@H](Cc2ccc(OC)cc2)N(C)C(=O)[C@@H]2CCCN2C(=O)[C@H](CC(C)C)NC(=O)[C@@H](C)C(=O)[C@H](C(C)C)OC(=O)C[C@@H]1O [SAPL1, Aplidine] (Pyruvoyl-P[dNMeL]T[X1]LP[NMeY](Me); ester 3-C)
IC50 (A549 (NSCL); Homo sapiens, A549): 24000 nM
IC50 (MX-1 (Breast)): 167 nM
IC50 ([1]; Homo sapiens, MOLT-3, MTT): 595 nM
IC50 (CCRF-SB (ALL, B-cell); Homo sapiens, CCRF-SB): 472 nM
IC50 ([2]; Homo sapiens, HuT78, read-out: IC50 (Molar) Lymphoma (Cutaneous T cell) Hut 78): 44.7 nM
IC50 (786-O (Renal); Homo sapiens, 786-0, read-out: IC50 (Molar) Renal 786-O): 83.1 nM
IC50 ([3]; Homo sapiens, P3HR-1, read-out: IC50 (Molar) Lymphoma (Burkitts ascites) P3HR1): 53.4 nM
IC50 [9]: 178 nM
IC50 (PANC-1 (Pancreas); Homo sapiens, PANC-1, read-out: IC50 (Molar) Pancreas PANC-1): 170 nM
IC50 (Hs746t (Gastric); Homo sapiens, Hs746T, MTT): 25.2 nM
IC50 (P388 Murine lymphoma): 0.18 nM
IC50 (SK-HEP-1 (Liver); Homo sapiens, SK-HEP1, MTT): 94.4 nM
IC50 [10]: 0.45 nM
IC50 ([4]; Homo sapiens, HL-60): 78.9 nM
IC50 ([5]; Homo sapiens, U-937, read-out: IC50 (Molar) Lymphoma (Histiocytic) U-937): 562 nM
IC50 (SK-OV-3 (Ovary); Homo sapiens, SK-OV-3, read-out: IC50 (Molar) Ovary SK-OV-3): 72 nM
IC50 (5637 (Bladder); MTT): 35.9 nM
IC50 ([6]; Homo sapiens, K562, MTT): 572 nM
IC50 ([7]; Homo sapiens, MC116, MTT): 921 nM
IC50 [11]: 0.18 nM
IC50 (SW 694 (Fibrosarcoma)): 1490 nM
IC50 (FADU (Pharynx); Homo sapiens, FaDu, MTT): 72.9 nM
IC50 (MEL-28 human melanoma): 0.45 nM
IC50 (HT-29 (Colon); Homo sapiens, HT-29, MTT): 687 nM
IC50 (H9 (Lymphoma, T cell); T-cell): 525 nM

CC[C@H](C)[C@H]1NC(=O)[C@@H](NC(=O)[C@@H](CC(C)C)N(C)C(=O)[C@@H]2CCCN2C(=O)C(C)=O)[C@@H](C)OC(=O)[C@H](Cc2ccc(OC)cc2)N(C)C(=O)[C@@H]2CCCN2C(=O)[C@H](CC(C)C)NC(=O)[C@H](C(C)C)OC(=O)C[C@@H]1O [SHPL1, [Hiv]^3-Aplidine] (Pyruvoyl-P[dNMeL]T[X2][Hiv]LP[NMeY](Me); ester 3-C)
IC50 ([1]; Homo sapiens, MOLT-3, MTS (new)): 17.7 nM
IC50 (Mel-28 (Melanoma)): 486 nM
specificity against solid tumors in the MTS assay [12]: more specific against solid tumors like colon, chondrosarcoma and osteosarcoma
IC50 (LNCAP (Prostate)): 14.6 nM
IC50 (OSA-FH (Osteosarcoma)): 5.89 nM
IC50 (Hs746t (Gastric); Homo sapiens, Hs746T, MTS (new)): 71.6 nM
IC50 (P388 Murine lymphoma): 0.474 nM
IC50 (CHSA (Chondrosarcoma)): 3.45 nM
IC50 (SK-HEP-1 (Liver); Homo sapiens, SK-HEP1, MTS (new)): 265 nM
IC50 [10]: 0.474 nM
IC50 (5637 (Bladder); MTS (new)): 90.2 nM
IC50 ([6]; Homo sapiens, K562, MTS (new)): 521 nM
IC50 ([7]; Homo sapiens, MC116, MTS (new)): 382 nM
IC50 [11]: 0.474 nM
IC50 (FADU (Pharynx); Homo sapiens, FaDu, MTS (new)): 37.1 nM
IC50 (MEL-28 human melanoma): 0.474 nM
IC50 (HT-29 (Colon); Homo sapiens, HT-29, MTS (new)): 10.2 nM

CC[C@H](C)[C@H]1NC(=O)[C@@H](NC(=O)[C@@H](CC(C)C)N(C)C(=O)[C@@H]2CCCN2C(=O)C(C)=O)[C@@H](C)OC(=O)[C@H](Cc2ccc(OC)cc2)N(C)C(=O)[C@@H]2CCCN2C(=O)[C@H](CC(C)C)NC(=O)[C@H](C(C)C)NC(=O)C[C@@H]1O [SVPL1, [Val]^3-Aplidine] (Pyruvoyl-P[dNMeL]T[X2]VLP[NMeY](Me); ester 3-C)
in vitro antitumor activity (tumor cells): high level of in vitro antitumor activity
IC50 (P388 Murine lymphoma): 0.113 nM
IC50 [10]: 0.113 nM
IC50 [11]: 0.113 nM
IC50 (MEL-28 human melanoma): 0.113 nM

[Hiv]^3-[L-Lac]^9-aplidine [9LSHPL1(L)]
in vitro activity against pancreatic carcinoma (pancreatic carcinoma): somewhat more active in vitro than III
in vitro antitumor activity in clonogenic assays [13]: retains similar levels of in vitro antitumor activity
tumor type specificity in NCI 60 cell panel (NCI 60 cell panel): does not show any tumor type specificity
protein biosynthesis inhibition properties (protein biosynthesis): retains similar levels
